The values below come from paper PMC5792431 (Scientific Reports, 2018).

The test system of data set [1] is rRVFVΔNSs::Katushka. Briefly: microbe, parasite or virus in culture. The conditions noted are these: for EC50: read-out: EC50, inhibition of fluorescent cell foci. The format is cell-based, Rift Valley fever virus.
Data set [2] has as its system rRVFVΔNSs::Katushka. Kind of data set: microbe, parasite or virus in culture. The note with it: Rift Valley fever virus, A549, 16 h, read-out: EC50, inhibition of RVFV RNA expression (qPCR). The format is cell-based.
Data set [3] deals with rRVFVΔNSs::Katushka. Briefly: microbe, parasite or virus in culture. The format is cell-based, Rift Valley fever virus.
Data set [4] concerns rRVFVΔNSs::Katushka. It counts as cell-based, Rift Valley fever virus.
The next data set deals with RVFV virions. The format is cell-based, Rift Valley fever virus.
For data set [5] the following is noted: human, microsomes, pH 7.4.
For data set [6] the following is noted: human.
For data set [7] the following is noted: mouse, microsomes, pH 7.4.
For data set [8] the following is noted: female, BALB/C, mouse, in vivo.
For data set [9] the following is noted: mouse, in vivo.
The nature of the next data set: in vivo. The note with it: female, BALB/C, mouse.
Data set [10] can be described thus: physchem. The note with it: plasma or biological fluid.
A short description of data set [11]: physchem. The conditions noted are these: pH 7.4.
A short description of data set [12]: physchem. The conditions noted are these: 37 °C, pH 7.4, aqueous buffer, thermodynamic from solid.
A short description of data set [13]: in vitro. The conditions noted are these: both, human, plasma, pH 7.4.
Data set [14] in a line: in vitro. The note with it: mouse, plasma, pH 7.4.
Data set [15] can be described thus: in vitro. The conditions noted are these: human, Caco-2, pH 7.4.
Data set [16] can be described thus: in vitro. The conditions noted are these: human, microsomes, pH 7.4.
Data set [17] is described as follows: in vitro. The note with it: human, hepatocytes.
The nature of data set [18]: in vitro. The note with it: mouse, microsomes, pH 7.4.
In the next data set the test system is A549 cells. The note with it: cited from earlier work.
Where [19] appears, read: Rift Valley fever virus, A549, 16 h.

Molecules are shown by their SMILES. Converted amounts (≈) assume the structure as drawn. Where two headings read alike, the source gives them in different places.

As for `O=C(Nc1cc(F)c(F)cc1C(=O)Nc1ccccc1C(=O)O)c1ccccc1F` [Benzavir-2, 2-(4,5-difluoro-2-(2-fluorobenzamido)benzamido)benzoic acid], the 50% effective concentration (EC50) was found to be 0.6 µM with rRVFVΔNSs::Katushka [1] (setting [19]); 1.7 µM in the data set on rRVFVΔNSs::Katushka [2]; 0.6 µM in the data set with rRVFVΔNSs::Katushka [3] (Rift Valley fever virus, A549, 16 h, read-out: EC50, inhibition of production of progeny infectious virus). In addition, the “inhibition of release of viable progeny particles to the supernatant” value in the data set with rRVFVΔNSs::Katushka [3] (1.25 μM) is given as > 95%. Also, the “inhibitory effect by time of addition” value in the data set on rRVFVΔNSs::Katushka [4] is listed as “the inhibitory effect on the formation of the fluorescent cell foci was the greatest”. The “inhibition of binding or uptake of RVFV virions” value with RVFV virions is reported as “No inhibition of binding or uptake of RVFV virions”. Moreover, the “CLH, u (HLM)” value in data set [5] was determined as 1.4 L/h. The “CLH, u (HHep)” value in data set [6] came to 4.0 L/h. Moreover, the “CLH, u (MLM)” value in data set [7] was found to be 0.15 L/h. Also, the Fapp stood at 43 ± 15% in data set [8] (ip, 2 mg/kg); 120 ± 40% in [8] (ip, 10 mg/kg); 14 ± 5% in data set [8] (po, 2 mg/kg); 54 ± 18% in [8] (po, 10 mg/kg). The “iv CL relative to unbound in vitro metabolic CL” value in data set [8] (iv) is 2–4 times higher. In addition, the “weight loss or negative behavioural signs” value in data set [9] was “No weight loss or negative behavioural signs were observed”. In addition, the Cmax was determined as 2.3 µM in the data set “in vivo” (ip, 2 mg/kg); 28 µM in the data set “in vivo” (ip, 10 mg/kg); 7.8 µM in the data set “in vivo” (iv, 1 mg/kg); 7.8 µM in the data set “in vivo” (iv, 2 mg/kg); 20 µM in the data set “in vivo” (iv, 4 mg/kg); 0.4 µM in “in vivo” (po, 2 mg/kg). This molecule yielded a Cmax in “in vivo” (po, 10 mg/kg) of 13 µM. In addition, the time to peak (Tmax) in the data set “in vivo” (ip, 2 mg/kg) is 15 min; in the data set “in vivo” (ip, 10 mg/kg) it was 15 min; in “in vivo” (po, 2 mg/kg), 30 min; in “in vivo” (po, 10 mg/kg) it was 30 min. The half-life was 84 ± 12 min in the data set “in vivo” (ip, 2 mg/kg); 96 ± 12 min in “in vivo” (ip, 10 mg/kg); 42 ± 12 min in “in vivo” (iv, 1 mg/kg); 42 ± 6 min in “in vivo” (iv, 2 mg/kg); 42 ± 6 min in “in vivo” (iv, 4 mg/kg); 180 ± 36 min in the data set “in vivo” (po, 2 mg/kg). In addition, in “in vivo” (po, 10 mg/kg), the half-life is 180 ± 60 min. The Vd in “in vivo” (iv, 1 mg/kg) amounted to 29 ± 7 L/kg; in the data set “in vivo” (iv, 2 mg/kg), 20 ± 2 L/kg; in “in vivo” (iv, 4 mg/kg) it was 35 ± 7 L/kg. Also, the clearance was 9.33 mL/min in “in vivo” (iv, 1 mg/kg); 6.17 mL/min in “in vivo” (iv, 2 mg/kg); 11.3 mL/min in “in vivo” (iv, 4 mg/kg). For the same molecule, the figures for the solubility in the data set “physchem [10]” and in “physchem [12]” were > 150 µM and 130 ± 10 µM (≈ 53.9 µg/mL), respectively. Further, in “physchem [11]”, the pH-dependent lipophilicity (logD) was found to be 1.56 ± 0.01. Besides, the fraction unbound amounted to 0.0004 ± 0.0002 in “in vitro [13]” and 0.0076 ± 0.0002 in “in vitro [14]”. Moreover, the apparent permeability from apical to basolateral (Papp A→B) in “in vitro [15]” came to 55 ± 4 ×10⁻⁶ cm/s. In “in vitro [15]”, this molecule had an apparent permeability from basolateral to apical (Papp B→A) of 45 ± 3 ×10⁻⁶ cm/s. In addition, the efflux ratio in the data set “in vitro [15]” worked out at 0.8. The microsomal CLint was found to be 3.8 ± 0.4 µL/min/mg in the data set “in vitro [16]” and 3.8 ± 0.9 µL/min/mg in “in vitro [18]”. This molecule also displayed a hepatocyte CLint in “in vitro [17]” of 4.1 ± 0.4 µL/min/1e6 cells. In addition, the CC50 entry in the data set with A549 cells is “not achieved within these concentrations”.
With `O=C(Nc1ccccc1C(=O)Nc1ccccc1C(=O)O)c1ccccc1` [Benzavir-1, 2-{[2-(benzoylamino)benzoyl]amino}-benzoic acid], in the data set on rRVFVΔNSs::Katushka [1] (setting [19]), the EC50 came out at 10.1 µM. Also, the “CLH, u (HLM)” value in data set [5] was 1.0 L/h. Moreover, the “CLH, u (HHep)” value in [6] stood at 2.3 L/h. In the data set “physchem [11]”, this molecule showed a log distribution coefficient (logD) of 1.52 ± 0.02. Further, in “physchem [12]”, the solubility amounted to 930 ± 110 µM (≈ 335 µg/mL). The same molecule came in with an unbound share (fraction unbound) in the data set “in vitro [13]” of 0.0003. Also, in “in vitro [15]”, the Papp A→B was 32 ± 3 ×10⁻⁶ cm/s, the Papp B→A turned out to be 31 ± 2 ×10⁻⁶ cm/s and the efflux ratio worked out at 1. This molecule also displayed a microsomal CLint in the data set “in vitro [16]” of 3.9 ± 0.8 µL/min/mg. The intrinsic metabolic clearance (hepatocyte CLint) in the data set “in vitro [17]” amounted to 3.1 ± 0.1 µL/min/1e6 cells.
Turning to `O=C(Nc1cc(Cl)ccc1C(=O)Nc1ccccc1C(=O)O)c1ccccc1F` [35f], the values for the EC50 in the data set on rRVFVΔNSs::Katushka [1] (setting [19]) and in the data set on rRVFVΔNSs::Katushka [1] were 4.5 µM and 4.6 µM, respectively.
`O=C(O)c1ccccc1NC(=O)c1ccccc1NC(=O)C1CCCCC1` [17e]: in the data set on rRVFVΔNSs::Katushka [1], the “EC50, inhibition of fluorescent cell foci” value is “out of range”.
On the same count and under the same terms, the entry for `CC(C)(C)C(=O)Nc1ccccc1C(=O)Nc1ccccc1C(=O)O` [17d] is “out of range”.
